Source: patent US20040102454A1, “Phenylahistin and the phenylahistin analogs, a new class of anti-tumor compounds” (priority 1998, published 2004)

Legend:
[1] = system: Lewis Lung Carcinoma cells; assay: In vivo antitumor activity against Lewis Lung Carcinoma
Description: (§1) Male BDF1 mice (6 weeks old) were inoculated subcutaneously in the right flank region with Lewis Lung Carcinoma cells (1×10^5 cells/body) on day 0. PLH [(−)-PLH content; 41.7%] was suspended in 10% ethanol-saline, and was administered daily at a dose of 24 mg/kg, 72 mg/kg, or 240 mg/kg intraperitoneally, as a single injection (0.2 ml/body), from days 1 to 14. Each group consisted of six mice. Mice were weighed, and the length (L) and the width (W) of the tumor were measured three times a week. On day 15, mice were sacrificed, and the tumor was excised and weighed. The estimated tumor weight (ETW) was calculated according to the following formula:
(§2) ETW (mg)=L (mm)×W^2 (mm^2 )/2,
where L represents the length of the tumor and W represents the width of the tumor. The suppression rate was calculated according to the following formula:
(§3) Suppression rate (%)=[1×(TWt/TWc)]×100,
(§4) Average and standard errors were calculated for each group. Variance analysis was performed by the Bartlett method (significance level: 5%), and if the variance was uniform, a Dunnett's multiple comparison test was performed. However, if the variance was not uniform, rank conversion was performed followed by variance analysis again by the Bartlett method (significance level: 5%). Significance was established at the p<0.05 level.

P388 leukemia cells = assay: In vivo antitumor activity against P388 leukemia; design: species or system mice
Description: Male CDF1 mice (4 weeks old) were inoculated intraperitoneally with P388 leukemia cells (1×10^6 cells/body) on day 0. […] Each group consisted of six mice. A T/C (%) was calculated according to the following formula:
T/C (%)=[(mean number of survival days of treated group)/(mean number of survival days of control group)]×100

Colon 26 cells = assay: In vivo antitumor activity against Colon 26
Description: as §1, §2, §3, §4
Male CDFI mice (6 weeks old) were inoculated subcutaneously in the right flank region with Colon 26 cells (1×10^5 cells/body) on day 0. Each group consisted of six mice. Preparation and administration of PLH, and the evaluation of antitumor activity was carried out as described for Lewis Lung Carcinoma, in EXAMPLE 14.

WiDr (colon) = assay: Antiproliferative activity, MTT assay (Table 7); type: cell-based; conditions: Homo sapiens, optical purity over 99.8%
Description: (§5) In order to examine detailed biological activity, especially antitumor activity of both (+)- and (−)-phenylahistin, resolution of (+)- and (−)-phenylahistin using chiral HPLC was conducted. By repeating chiral separation twice or three times, each enantiomer with an optical purity over 99.8% was obtained, and each enantiomer was recrystallizes from ethanol-hexane mixture.
(§6) Antitumor activity of (+)- and (−)-phenylahistin was examined against seven human cancer cell lines including A431, WiDr, TE-671, Hela, MCF7, A-549 and K562 cells.

MCF7 (breast) = assay: Antiproliferative activity, MTT assay (Table 7); type: cell-based; conditions: Homo sapiens, optical purity over 99.8%
Description: as §5, §6

Hela (ovary) = assay: Antiproliferative activity, MTT assay (Table 7); type: cell-based; conditions: Homo sapiens, optical purity over 99.8%
Description: as §5, §6

K562 (leukemia) = assay: Antiproliferative activity, MTT assay (Table 7); type: cell-based; conditions: Homo sapiens, optical purity over 99.8%
Description: as §5, §6

A-431 (damal) = assay: Antiproliferative activity, MTT assay (Table 7); type: cell-based; conditions: Homo sapiens, optical purity over 99.8%
Description: as §5, §6

A549 (lung) = assay: Antiproliferative activity, MTT assay (Table 7); type: cell-based; conditions: Homo sapiens, optical purity over 99.8%
Description: as §5, §6

bovine brain tubulin = assay: [^3H]CLC binding to tubulin and competition assay; conditions: Dixon plot, assuming competitive inhibition; 0.5 μM [^3H]CLC; read-out: estimated Ki value for CLC binding
Description: [^3H]CLC binding to tubulin was evaluated by the ultrafiltration method of Takahashi, M., et al., Biochim. Biophys. […] The concentration of unbound [^3H]CLC in the filtrates was determined using a EcoLite™(+) liquid scintillator from ICN Pharmaceuticals Inc. (Costa Mesa, Calif.). Specific bound [^3H]CLC concentrations were determined by adding an excess (×100) of unlabeled CLC to the reaction mixture.
For the competition assay, bovine brain tubulin (0.2 mg/ml) was incubated in the microtubule assembly buffer with 0.5 μM [^3H]CLC and various concentrations of competitors for 20 min at 37° C. [^3H]CLC binding was measured as described above.

Microtubule protein = assay: Electron microscopy of microtubule protein polymerization; type: biochemical, bovine; conditions: 100 μM, 37° C. for 20 min
Description: Microtubule protein (1.5 mg/ml) was polymerized at 37° C. for 20 min in the presence of 100 μM (−)-PLH or vehicle (DMSO). A portion of each sample was diluted 5-fold with 1% glutaraldehyde in the microtubule assembly buffer. Samples were then placed on formvar- and carbon-coated grids, stained with 2% uranyl acetate, and examined using a JEOLJEM-1200 EXII electron microscope JEOL (Tokyo, Japan).

A549 cells = assay: Mitotic index; type: cell-based, human
Description: Exponentially growing A549 cells were seeded into 96-well tissue culture plates (2×10^3 cells/100:1/well) and cultured for 16 hours. (−)-PLH or CLC was then added to each well at various concentrations, and the plates were incubated for an additional 24 hours. The number of cells in mitosis (round cells) and total cells in eight randomly selected fields were counted under a phase-contrast microscope. In a series of preliminary studies, it was confirmed that the round cells in this condition were cells in mitosis by using flow cytometry and Hoechst 33258 staining. The mitotic index represented the percentage of round cells among the total number of cells in the eight selected fields.

[2] = 4.2 mg/kg (1 mg/kg calculated (−)-PLH) i.p. daily days 1 to 12
[3] = 12.5 mg/kg (3 mg/kg calculated (−)-PLH) i.p. daily days 1 to 12
[4] = 42 mg/kg (10 mg/kg calculated (−)-PLH) i.p. daily days 1 to 12
[5] = 125 mg/kg (30 mg/kg calculated (−)-PLH) i.p. daily days 1 to 12
[6] = calculated from (−)-PLH content 41.7%

## C=CC(C)(C)c1[nH]cnc1/C=C1\NC(=O)[C@H](Cc2ccccc2)NC1=O (racemic) [PLH, phenylahistin]
[1]; 24 mg/kg/day
  rate of suppression (excised tumor weight): 9.9%
  weight of the excised tumor on the fifteenth day: 2,941 mg
[1]; 24 mg/kg/day, day 7
  estimated tumor weight (ETW): 86 mg
[1]; 24 mg/kg/day, day 15
  estimated tumor weight (ETW): 2,244 mg
[1]; 72 mg/kg/day
  rate of suppression (excised tumor weight): 27.1%
  weight of the excised tumor on the fifteenth day: 2,380 mg
[1]; 72 mg/kg/day, day 7
  estimated tumor weight (ETW): 34 mg
[1]; 72 mg/kg/day, day 15
  estimated tumor weight (ETW): 2,142 mg
[1]; 72 mg/kg/day, on day 11
  mice died: 1 mouse
[1]; 240 mg/kg/day
  body weight: markedly lower than control values after day 3, and significantly lower on day 6
  rate of suppression (excised tumor weight): 81.0%
  weight of the excised tumor on the fifteenth day: 619 mg
[1]; 240 mg/kg/day, day 7
  estimated tumor weight (ETW): 34 mg
[1]; 240 mg/kg/day, day 10
  suppression of the ETW: 81.8%
[1]; 240 mg/kg/day, day 13
  suppression of the ETW: 82.3%
[1]; 240 mg/kg/day, day 15
  estimated tumor weight (ETW): 617 mg
  suppression of the ETW: 73.2%
[1]; 240 mg/kg/day, on day 13
  mice died: 1 mouse
[1]; 24 and 72 mg/kg/day
  body weight: little change in body weight
[1]; PLH with (−)-PLH content 41.7%
  95% confidence limit of ED50: 22.0˜504.1 mg/kg/day
[1]; linear regression of suppression rate, PLH with (−)-PLH content 41.7%
  ED50: 105.3 mg/kg/day
[1]; mouse, in vivo
  mice died: None
P388 leukemia cells; [2]
  Mean Body weight on day 12: 25.3 ± 0.4 g
  Mean Number of Survival days: 14.6 ± 0.6 days
  T/C (%): 117%
P388 leukemia cells; [3]
  Mean Body weight on day 12: 24.1 ± 0.6 g
  Mean Number of Survival days: 14.6 ± 0.5 days
  T/C (%): 117%
P388 leukemia cells; [4]
  Mean Body weight on day 12: 23.0 ± 0.5 g
  Mean Number of Survival days: 16.1 ± 0.8 days
  T/C (%): 129%
P388 leukemia cells; [5]
  Mean Body weight on day 12: 22.3 ± 0.3 g
  Mean Number of Survival days: 18.9 ± 0.9 days
  T/C (%): 151%
P388 leukemia cells; daily administrations of PLH 41.5 and 124 mg/kg
  increases in body weight seen in the control group: suppressed
P388 leukemia cells; daily dosage of 41.5 mg/kg for 12 days
  T/C: 129%
P388 leukemia cells; daily dosage of 124 (30) mg/kg for 12 days
  T/C: 151%
P388 leukemia cells; highest dose (124 mg/kg/day)
  tremorgenic side effects: did not induce such side effects
P388 leukemia cells; single administration, 415 mg/kg PLH [(−)-PLH 100 mg/kg]
  T/C: 115%
Colon 26 cells; 24 mg/kg/day
  rate of suppression (excised tumor weight): 4.0%
  weight of the excised tumor on the fifteenth day: 1,113 mg
Colon 26 cells; 24 mg/kg/day and 72 mg/kg/day
  body weight: No marked changes in the weight
  increments of ETW: slightly lower than those of the control group
Colon 26 cells; 72 mg/kg/day
  rate of suppression (excised tumor weight): 27.3%
  weight of the excised tumor on the fifteenth day: 843 mg
Colon 26 cells; 240 mg/kg/day
  body weight: lower than that of the control group from day 3
  mice died: one mouse died on day 12, two died on day 13 and one died on day 14
  rate of suppression (excised tumor weight): 81.8%
  weight of the excised tumor on the fifteenth day: 211 mg
Colon 26 cells; 240 mg/kg/day, day 7
  ETW: 14 mg
Colon 26 cells; 240 mg/kg/day, day 10
  suppression rate (ETW): 64.4%
Colon 26 cells; 240 mg/kg/day, day 13
  suppression rate (ETW): 78.8%
Colon 26 cells; 240 mg/kg/day, day 15
  ETW: 254 mg
  suppression rate (ETW): 85.4%
Colon 26 cells; PLH with (−)-PLH content 41.7%
  95% confidence limit of ED50: 29.0˜397.7 mg/kg/day
  ED50: 107.3 mg/kg/day
Colon 26 cells; mouse, in vivo
  mice died: No mice died

## C=CC(C)(C)c1[nH]cnc1/C=C1\NC(=O)[C@H](Cc2ccccc2)NC1=O [(−)-phenylahistin]
WiDr (colon)
  IC50: 180 nM
MCF7 (breast)
  IC50: 330 nM
Hela (ovary)
  IC50: 200 nM
K562 (leukemia)
  IC50: 190 nM
A-431 (damal)
  IC50: 220 nM
A549 (lung)
  IC50: 300 nM
[1]; [6]
  95% confidence limit of ED50, as (−)-PLH: 9.2˜210.2 mg/kg/day
  ED50, calculated dose of (−)-PLH: 43.9 mg/kg/day
Bovine brain tubulin
  Ki: 7400 nM
Microtubule protein
  microtubule structures by electron microscopy: did not contain such structures
A549 cells; 24 hours
  mitotic index: increased
A549 cells; after washing and replacement with fresh medium
  reversibility of the anti-mitotic effect: reversible
Colon 26 cells; [6]
  95% confidence limit of ED50, as (−)-PLH: 12.1˜165.8 mg/kg/day
  ED50, calculated dose of (−)-PLH: 44.7 mg/kg/day
